Laboratory results reported in patent publication US5603951A, “Cyclosporin-containing soft capsule compositions” (Hanmi Pharm. Ind. Co., Ltd., priority 1994, dated 1997).

Assay: Change in cosurfactant content of soft capsules over storage at room temperature (membrane permeation, gas chromatography)
Format: physicochemical
Description: The content of the cosurfactant in each soft capsule preparation was analyzed by gas chromatography.
Conditions of gas chromatography for each cosurfactant
Column: Ultra 2 (Crosslinked 2% phenylmethyl silicone gun phase, 25 m
× 0.32 mm, thickness 0.52 μm)
Column temperature: 230° C. (Isothermal)
Detector: FID (Temperature: 270° C.)
Injection temperature: 275° C.
Carrier gas: He (Partition ratio 80:1)
Internal standard: Octyl alcohol
Column: HP20M (Carbowax 20M) (25 m × 0.32 mm, film thickness 0.3
Column temperature: 30° C. (Isothermal)
Detector: FID (Temperature: 200° C.)
Injection temperature: 150° C.
Internal standard: Diethyl ether

Row | Change of cosurfactant content in soft capsule after 10 days (in words) | Cosurfactant content reduced by, of the initial content, after 10 days (soft capsule) [%] | SMILES
1 | does not change in its content |  | CO[C@H]1CO[C@H]2[C@@H]1OC[C@H]2OC [dimethylisosorbide]
2 |  | 27.8 | CCO [ethanol]
